How the values were obtained:
Type in all cases: functional
Mus musculus [1] = experiment: Antibacterial activity against Escherichia coli (311) infection in mice after single oral dose, activity expressed as ED50
Mus musculus [2] = experiment: Antibacterial activity against Escherichia coli (311) infection in mice after single subcutaneous dose, activity expressed as ED50; details: sc
[3] = target: T1, Dipeptidase 1 (Sus scrofa) (UniProt P22412); experiment: Relative hydrolysis by hog Dehydropeptidase
T1 sequence (whole entry): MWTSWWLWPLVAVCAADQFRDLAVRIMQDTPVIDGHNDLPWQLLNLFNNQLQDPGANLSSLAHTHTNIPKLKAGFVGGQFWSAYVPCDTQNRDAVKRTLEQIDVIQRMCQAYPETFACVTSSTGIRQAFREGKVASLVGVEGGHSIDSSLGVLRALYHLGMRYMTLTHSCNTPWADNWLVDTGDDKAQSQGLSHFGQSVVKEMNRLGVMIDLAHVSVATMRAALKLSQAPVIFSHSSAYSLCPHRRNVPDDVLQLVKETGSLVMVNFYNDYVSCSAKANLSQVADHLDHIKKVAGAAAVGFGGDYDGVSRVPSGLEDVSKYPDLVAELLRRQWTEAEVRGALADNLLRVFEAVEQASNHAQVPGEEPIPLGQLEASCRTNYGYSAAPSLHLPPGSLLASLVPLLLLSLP

[4] = system: Acinetobacter calcoaceticus; experiment: In vitro antibacterial activity against Acinetobacter calcoaceticus (GC 756) following preincubation in mouse serum
Citrobacter freundii [5] = experiment: In vitro antibacterial activity against C. freundii(GC 2211) following pre-incubation in mouse serum
Citrobacter freundii [6] = experiment: In vitro antibacterial activity against C. freundii(GC 2211) without preincubation in mouse serum
Enterococcus faecalis [7] = experiment: In vitro antibacterial activity against E. faecalis(GC 842) without pre-incubation in mouse serum
Enterococcus faecalis [8] = experiment: In vitro antibacterial activity against E. faecalis(GC 842) following pre-incubation in mouse serum
Enterobacter cloacae [9] = experiment: In vitro antibacterial activity against E. cloacae(GC 2209) following preincubation in mouse serum
Enterobacter cloacae [10] = experiment: In vitro antibacterial activity against E. cloacae(GC 2209) without pre-incubation in mouse serum
Enterococcus faecium [11] = experiment: In vitro for antibacterial activity against E. faecium(GC 1182) without pre-incubation in mouse serum
Escherichia coli [12] = experiment: In vitro antibacterial activity expressed as MIC against Escherichia coli (ATCC 25922) following pre-incubation in mouse serum
Escherichia coli [13] = experiment: In vitro antibacterial activity expressed as MIC against Escherichia coli (ATCC 25922) without pre-incubation in mouse serum
Escherichia coli [14] = experiment: In vitro antibacterial activity expressed as MIC against E. coli(GC 1792) following pre-incubation in mouse serum
Escherichia coli [15] = experiment: In vitro antibacterial activity expressed as MIC against E. coli(GC 1792) without pre-incubation in mouse serum
Escherichia coli [16] = experiment: In vitro antibacterial activity expressed as MIC against E. coli(GC 2205) following pre-incubation in mouse serum
Escherichia coli [17] = experiment: In vitro antibacterial activity expressed as MIC against E. coli(GC 2205) without pre-incubation in mouse serum
Morganella morganii [18] = experiment: In vitro antibacterial activity against M. morganii(GC 2213) following pre-incubation in mouse serum
Morganella morganii [19] = experiment: In vitro antibacterial activity against M. morganii(GC 2213) without pre-incubation in mouse serum
Pseudomonas aeruginosa [20] = experiment: In vitro antibacterial activity against Pseudomonas aeruginosa (ATCC 27853) following pre-incubation in mouse serum
Pseudomonas aeruginosa [21] = experiment: In vitro antibacterial activity against Pseudomonas aeruginosa (ATCC 27853) without pre-incubation in mouse serum
Pseudomonas aeruginosa [22] = experiment: In vitro antibacterial activity against P. aeruginosa(GC 1544 oprd) without pre-incubation in mouse serum
Staphylococcus aureus [23] = experiment: In vitro antibacterial activity against S aureus(ATCC 29213) following preincubation in mouse serum
Staphylococcus aureus [24] = experiment: In vitro antibacterial activity against S. aureus(ATCC 29213) without pre-incubation in mouse serum
Staphylococcus aureus [25] = experiment: In vitro antibacterial activity against S. aureus(GC 2220 MRSA) without pre-incubation in mouse serum
[26] = system: Stenotrophomonas maltophilia; experiment: In vitro antibacterial activity against X. maltophilia(GC 562) without pre-incubation in mouse serum
Staphylococcus aureus [27] = experiment: In vitro antibacterial activity against S. aureus(GC 2220 MRSA) following pre-incubation in mouse serum
Pseudomonas aeruginosa [28] = experiment: In vitro antibacterial activity against P. aeruginosa(GC 1544 oprd) following pre-incubation in mouse serum
[29] = system: Stenotrophomonas maltophilia; experiment: In vitro antibacterial activity against X. maltophilia(GC 562) following pre-incubation in mouse serum
[30] = system: Acinetobacter calcoaceticus; experiment: In vitro antibacterial activity against Acinetobacter calcoaceticus (GC 756) without preincubation in mouse serum
Enterococcus faecium [31] = experiment: In vitro for antibacterial activity against E. faecium(GC 1182) following pre-incubation in mouse serum

Compound: CC(C)C(=O)OCOC(=O)NC[C@H]1OCC[C@H]1SC1=C(C(=O)OCOC(=O)C(C)(C)C)N2C(=O)[C@H]([C@@H](C)O)C2[C@H]1C (some centres not stated)
- ED50 (Mus musculus [1]): 1.6 mg/kg
- ED50 (Mus musculus [2]): 1.9 mg/kg

Compound: CCN(C(C)C)C(C)C.C[C@H]1C(S[C@@H]2CCO[C@@H]2CNC(=O)OCOC(=O)C(C)(C)C)=C(C(=O)O)N2C(=O)[C@H]([C@@H](C)O)C12 (some centres not stated)
- ED50 (Mus musculus [1]): 2.9 mg/kg
- ED50 (Mus musculus [2]): 0.65 mg/kg

Compound: C[C@H]1C(SC2COC(CN)C2)=C(C(=O)O)N2C(=O)[C@H]([C@@H](C)O)C12 (some centres not stated)
- ED50 (Mus musculus [1]): 3.5 mg/kg
- ED50 (Mus musculus [2]): 0.28 mg/kg

Compound: CC(=O)OC(C)OC(=O)NC[C@H]1OCC[C@H]1SC1=C(C(=O)O)N2C(=O)[C@H]([C@@H](C)O)C2[C@H]1C.CCN(C(C)C)C(C)C (some centres not stated)
- ED50 (Mus musculus [1]): 4.5 mg/kg
- ED50 (Mus musculus [2]): 0.62 mg/kg

Compound: CC(OC(=O)OC1=CCCCC1)OC(=O)C1=C(S[C@@H]2CCO[C@@H]2CNC(=O)OCOC(=O)C(C)C)[C@H](C)C2[C@@H]([C@@H](C)O)C(=O)N12 (some centres not stated)
- ED50 (Mus musculus [1]): 1.5 mg/kg
- ED50 (Mus musculus [2]): 1.9 mg/kg

Compound: C[C@H]1C(S[C@@H]2CCO[C@@H]2CNC(=O)OCOC(=O)c2ccccc2)=C(C(=O)[O-])N2C(=O)[C@H]([C@@H](C)O)C12.[Na+] (some centres not stated)
- ED50 (Mus musculus [1]): 2.9 mg/kg
- ED50 (Mus musculus [2]): 0.32 mg/kg

Compound: CC(C)OC(=O)OC(C)OC(=O)C1=C(S[C@@H]2CCO[C@@H]2CNC(=O)OCOC(=O)C(C)C)[C@H](C)C2[C@@H]([C@@H](C)O)C(=O)N12 (some centres not stated)
- ED50 (Mus musculus [1]): 1.4 mg/kg
- ED50 (Mus musculus [2]): 2.1 mg/kg

Compound: CC(OC(=O)OC1=CCCCC1)OC(=O)C1=C(S[C@@H]2CCO[C@@H]2CN)[C@H](C)C2[C@@H]([C@@H](C)O)C(=O)N12.Cl (some centres not stated)
- ED50 (Mus musculus [1]): > 3.2 mg/kg
- ED50 (Mus musculus [2]): 1.6 mg/kg

Compound: CC(=O)OC(C)OC(=O)NC[C@H]1OCC[C@H]1SC1=C(C(=O)O)N2C(=O)[C@H]([C@@H](C)O)C2[C@H]1C (some centres not stated)
- Relative hydrolysis [3]: 6

Compound: CC(=O)OC(C)OC(=O)NC[C@H]1OCC[C@H]1SC1=C(C(=O)[O-])N2C(=O)[C@H]([C@@H](C)O)C2[C@H]1C.[Na+] (some centres not stated)
- MIC [4]: 4 µg/mL
- MIC (Citrobacter freundii [5]): 0.25 µg/mL
- MIC (Citrobacter freundii [6]): 4 µg/mL
- MIC (Enterococcus faecalis [7]): 4 µg/mL
- MIC (Enterococcus faecalis [8]): 1 µg/mL
- MIC (Enterobacter cloacae [9]): < 0.06 µg/mL
- MIC (Enterobacter cloacae [10]): 2 µg/mL
- MIC (Enterococcus faecium [11]): > 128 µg/mL
- MIC (Escherichia coli [12]): < 0.06 µg/mL
- MIC (Escherichia coli [13]): 0.12 µg/mL
- MIC (Escherichia coli [14]): < 0.06 µg/mL
- MIC (Escherichia coli [15]): 0.25 µg/mL
- MIC (Escherichia coli [16]): < 0.06 µg/mL
- MIC (Escherichia coli [17]): 0.12 µg/mL
- ED50 (Mus musculus [1]): 4.9 mg/kg
- ED50 (Mus musculus [2]): 0.65 mg/kg
- MIC (Morganella morganii [18]): 1 µg/mL
- MIC (Morganella morganii [19]): 2 µg/mL
- MIC (Pseudomonas aeruginosa [20]): 16 µg/mL
- MIC (Pseudomonas aeruginosa [21]): 64 µg/mL
- MIC (Pseudomonas aeruginosa [22]): > 128 µg/mL
- MIC (Staphylococcus aureus [23]): < 0.06 µg/mL
- MIC (Staphylococcus aureus [24]): 0.5 µg/mL
- MIC (Staphylococcus aureus [25]): 32 µg/mL
- MIC [26]: > 128 µg/mL
- MIC (Staphylococcus aureus [27]): 8 µg/mL
- MIC (Pseudomonas aeruginosa [28]): 32 µg/mL
- MIC [29]: > 128 µg/mL
- MIC [30]: 32 µg/mL
- MIC (Enterococcus faecium [31]): 64 µg/mL

Reference: ChEMBL document CHEMBL1130478, “Mono and bis double ester prodrugs of novel aminomethyl-THF 1-methylcarbapenems” (Bioorg Med Chem Lett, 1997)
